Columns and labels:
in vivo = settings: male, Sprague Dawley, rat, plasma, iv, 10 mg/kg
Description: Yet other exemplary in vivo models can be used to characterize the pharmacokinetics and pharmacodynamic parameters of antimicrobial compounds of this disclosure. Some parameters that can be measured include an in vivo half-life of a compound, elimination rate and clearance, volume of distribution, and bioavailability. For example, briefly, compounds can be administered as a single i.v. or oral (p.o.) dose in mice or rats. At various time points (ranging from 1 minute to 72 hours), blood from treated animals is collected and the concentration of lipopeptide derivative in the ex vivo plasma can be quantified by, for example, liquid chromatography with mass spectrometric detection (LC/MS). After quantification, pharmacokinetics parameters can be calculated using methods known in the art, such as a one compartment model with mono-exponential decay and linear regression analysis (see, e.g., Fantin et al., Antimicrob. Agents Chemotherap. 35: 1413. 1991).
A pharmacokinetic parameter that can be measured, and which aids in determining efficacy, after a single i.v. administration of an antimicrobial lipopeptide derivative of the instant disclosure is the systemic half-life of the compound. Briefly, test compounds were dissolved in a 5% mannitol solution (pH was then adjusted) to a concentration of 1 mg/mL (w/v). A single intravenous injection in the lateral caudal vein of Swiss CD1 mice (5 to 6 weeks old, female) or Sprague Dawley rats (male) was used to administer the lipopeptide derivative at a final dose of 10 mg/kg. At various time points (ranging from about 4 minutes to about 24 hours for mice, and 48 or 72 hours for rats) mice were sacrificed and blood was harvested. The concentration of lipopeptide derivative in ex vivo plasma was quantified using liquid chromatography (LC) with mass spectrometric detection (MS).

[1] = tested on: Enterococcus faecium EFM0101 (VRE, MDR); assay: Broad spectrum MIC, Table 17/18 column A; assay type: cell-based; settings: condition A of Table 17, in µg/mL
Description: (§1) The antimicrobial lipopeptide derivatives described herein were tested for antimicrobial activity against Gram-positive bacteria as follows. The minimum inhibitory concentrations (MIC) of the antimicrobial lipopeptide derivatives of the invention were determined using NCCLS guidelines M7-A6 (2003) with a slight modification in that doubling serial dilutions were used to dilute the test compounds. The broth phase microdilution method was used. Isolated colonies of Staphylococcus aureus (MSSA) from an 18-24 hour blood agar plate cultures were used to inoculate cation adjusted Mueller-Hinton broth (CAMHB) supplemented with 0.625 mM calcium. […] A negative control containing media alone and a positive growth control containing bacteria with media alone were also included. MICs were determined after incubating the plates at about 37° C. for 24 hours. […] In Tables 1 to 16, R is the core cyclic peptide of amphomycin or aspartocin, which can be in the form of a β-isomer, an anhydro, a dianhydro, or any combination thereof. […] Furthermore, a person of skill in the art will appreciate that all the pounds, or groups of compounds, derived from the various combinations of and substituents shown in Tables 1 to 16, are disclosed by the present the same extent as if each compound or group of compounds was set forth individually.
(§2) Antimicrobial lipopeptide derivatives of the instant invention were tested for antimicrobial activity against Gram-positive bacteria in a variety of media conditions. The […] (MIC) of the antimicrobial lipopeptide derivatives were determined as described in Example 376. The various media used are described in Table 17.

[2] = tested on: S. aureus Smith (SAU0017, ATCC 19636); assay: Intraperitoneal murine model of protection against infection (ED50, Table 21); assay type: in vivo, Staphylococcus aureus; settings: Swiss CD1 mice infected i.p., compound i.v.
[3] = tested on: Staphylococcus aureus SAU0017 (MSSA); assay: Broad spectrum MIC, Table 17/18 columns E, F (+ 0.625 mM calcium; + calcium and 30% bovine serum); assay type: cell-based; settings: in µg/mL; for MIC, media condition E: condition E: + 0.625 mM calcium; for MIC, media condition F: condition F: + calcium and 30% bovine serum
Description: as §1, §2

[4] = tested on: Staphylococcus aureus SAU0031 (VISA); assay: Broad spectrum MIC, Table 17/18 column G; assay type: cell-based; settings: condition G of Table 17, in µg/mL
Description: as §1, §2

[5] = tested on: Streptococcus pneumoniae SPN0002 (PISP); assay: Broad spectrum MIC, Table 17/18 column J; assay type: cell-based; settings: condition J of Table 17, in µg/mL
Description: as §1, §2

[6] = tested on: Streptococcus pneumoniae SPN0032 (PSSP); assay: Broad spectrum MIC, Table 17/18 column L; assay type: cell-based; settings: condition L of Table 17, in µg/mL
Description: as §1, §2

[7] = tested on: Staphylococcus aureus SAU0065 (MRSA); assay: Broad spectrum MIC, Table 17/18 column H; assay type: cell-based; settings: condition H of Table 17, in µg/mL
Description: as §1, §2

[8] = tested on: Streptococcus pyogenes SPY0001 (PenS); assay: Broad spectrum MIC, Table 17/18 column M; assay type: cell-based; settings: condition M of Table 17, in µg/mL
Description: as §1, §2

[9] = In vivo half-life after single i.v. administration, mice; settings: female, Swiss CD1, mouse, plasma, iv, 10 mg/kg
[10] = tested on: Streptococcus pneumoniae SPN0023 (PRSP); assay: Broad spectrum MIC, Table 17/18 column K; assay type: cell-based; settings: condition K of Table 17, in µg/mL
Description: as §1, §2

[11] = tested on: Enterococcus faecalis EFS0004 (VSE); assay: Broad spectrum MIC, Table 17/18 B, C, D (CAMHB; + 0.625 mM calcium; + calcium and 30% bovine serum); assay type: cell-based; settings: in µg/mL; for MIC, media condition B: condition B: CAMHB; for MIC, media condition C: condition C: + 0.625 mM calcium; for MIC, media condition D: condition D: + calcium and 30% bovine serum
Description: as §1, §2

[12] = tested on: Staphylococcus epidermidis SEP0375 (MRSE); assay: Broad spectrum MIC, Table 17/18 column I; assay type: cell-based; settings: condition I of Table 17, in µg/mL
Description: as §1, §2

Row | Compound | half-life (in vivo) [h] | MIC, media condition A [1] | ED50 in Mice, S. aureus (SAU0017) [2] [mg/kg] | MIC, media condition E [3] | MIC, media condition F [3] | MIC, media condition G [4] | MIC, media condition J [5] | MIC, media condition L [6] | MIC, media condition H [7] | MIC, media condition M [8] | half-life [9] [h] | MIC, media condition K [10] | MIC, media condition B [11] | MIC, media condition C [11] | MIC, media condition D [11] | MIC, media condition I [12]
1 | CCCCCCCCCCCCCCC(=O)NC(CC(=O)O)C(=O)NC1C(=O)N2CCCCC2C(=O)NC(C(C)C(=O)O)C(=O)NC(CC(=O)O)C(=O)NCC(=O)NC(CC(=O)O)C(=O)NCC(=O)NC(C(C)NC(=O)CNC(=O)[C@@H](N)CCCCN)C(=O)NC(C(C)C)C(=O)N2CCCC2C(=O)NC1C (some centres unmarked) [Compound 4, C15-Amphomycin-9-Gly-Lys] | 1.09 | 1 | 6.2 | 0.5-1 | 4 | 8 | 0.25 | 0.25-0.5 | 1-4 | 0.25 | 0.752 | 0.25 | 1-4 | 1-2 | >64 | 1-2
2 | CCCCCCCCCCCCCCC(=O)NC(CC(=O)O)C(=O)NC1C(=O)N2CCCCC2C(=O)NC(C(C)C(=O)O)C(=O)NC(CC(=O)O)C(=O)NCC(=O)NC(CC(=O)O)C(=O)NCC(=O)NC(C(C)NC(=O)CCN)C(=O)NC(C(C)C)C(=O)N2CCCC2C(=O)NC1C (stereo not drawn) [Compound 147, C15-Amphomycin-9-(β-Ala)] | 4.58 | 0.5-1 | 6.5 | 0.25-0.5 | 2 | 2 | 0.125 | 0.125 | 1 | 0.125 | 8.02 | 0.125 | 2 | 0.5-1 | 32 | 0.5-1
3 | CCCCCCCCCCCCCCC(=O)NC(CC(=O)O)C(=O)NC1C(=O)N2CCCCC2C(=O)NC(C(C)C(=O)O)C(=O)NC(CC(=O)O)C(=O)NCC(=O)NC(CC(=O)O)C(=O)NCC(=O)NC(C(C)NC(=O)CN(C)C(=O)[C@@H](N)CCCCN)C(=O)NC(C(C)C)C(=O)N2CCCC2C(=O)NC1C (some centres unmarked) [Compound 199, C15-Amphomycin-9-Sar-Lys] | – | 0.5-1 | 8 | 0.25-1 | 4-8 | 4-8 | 0.25 | 0.25-0.5 | 1-2 | 0.25 | 6.18 | 0.25 | 1-2 | 1-2 | 64 | 0.5-1
